Among the test systems are LXFL 529; DMS-114; XF498; SNB-78; DMS-273; DLD-1; M19-MEL; HOP-18; RXF 631.
What all share (assay): growth of human tumour cells (NCI), 48 h

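Cells were grown in 96-well plates and exposed to each compound for 48 hours at five concentrations; endpoints were interpolated linearly between bracketing concentrations, or set to the highest concentration if not reached. GI50 = concentration required for 50% inhibition of growth.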 The source made the active and inactive calls. Cut-off read from the data, not from the text of the source: active = GI50 up to about 1.1 µM and inactive = higher.

As for `COc1cc(OC)c(C2CC=Cc3c(OC)cc(OC)c(OC)c32)cc1OC` (stereo unspecified), the GI50 in the test on LXFL 529, in the test on DMS-114, with XF498, in the test with SNB-78, in the test with DMS-273 and in the test with DLD-1 was > 100 µM (inactive) in each case. Besides, the GI50 with M19-MEL and in the test with HOP-18 was > 100 µM (inactive) each time.
Regarding `CN(C)c1ccc2c(NCCCCCCNc3ccnc4cc(N(C)C)ccc34)ccnc2c1`, the GI50 in the test on DMS-114 is 6.75 µM (inactive); in the test on RXF 631 it was 51.4 µM (inactive); in the test with XF498, 2.79 µM (inactive); in the test on SNB-78, 4.79 µM (inactive); with DMS-273 it was 4.03 µM (inactive); in the test with DLD-1 it was 43.7 µM (inactive). For the same compound, in the test with M19-MEL, the GI50 is 13.7 µM (inactive).
On to `CCCCCC/C(CC(=O)CCC(=O)NCCc1ccccc1)=N\Nc1ccc([N+](=O)[O-])cc1[N+](=O)[O-]`, for which the GI50 in the test with LXFL 529 was 49.3 µM (inactive); in the test with DMS-114, 20 µM (inactive); with RXF 631 it was 64.6 µM (inactive); in the test with SNB-78, > 100 µM (inactive); in the test with DMS-273, > 100 µM (inactive); with DLD-1, 63.7 µM (inactive). The GI50 is 54.5 µM (inactive) in the test with M19-MEL and 59.8 µM (inactive) in the test on HOP-18.
On to `COc1cc(OC(=O)c2ccccc2)cc2c1C(=O)C=CC2=O`, for which the GI50 was 12.7 µM (inactive) in the test with LXFL 529; 10.9 µM (inactive) with DMS-114; 20 µM (inactive) in the test on RXF 631; 17.6 µM (inactive) in the test on XF498; 20.5 µM (inactive) with SNB-78; 21.8 µM (inactive) with DMS-273. Besides, the results for the GI50 with DLD-1, with M19-MEL and in the test on HOP-18 were 15.4 µM (inactive), 11 µM (inactive) and 16.6 µM (inactive), respectively.
Turning to `C=CCC1(CC)C(=O)NC(=O)NC1=O` [ETALLOBARBITAL], the GI50 in the test on LXFL 529, in the test on SNB-78, in the test on DMS-273 and in the test on M19-MEL was > 100 µM (inactive) in each case.
Consider `O=C1C=CC(=O)c2cc(Sc3ccccc3)c(=O)c(Sc3ccccc3)cc21`, for which the GI50 with LXFL 529 was 26.1 µM (inactive); with DMS-114 it was 22.2 µM (inactive); in the test on XF498 it was 86.3 µM (inactive); in the test on DMS-273 it was > 100 µM (inactive); with DLD-1 it was 56.4 µM (inactive); in the test on M19-MEL, 48.5 µM (inactive). Also, the GI50 in the test on HOP-18 is 71.8 µM (inactive).
Consider `OCc1c[te]c(-c2ccccc2)c1`, for which the GI50 in the test with LXFL 529 is > 100 µM (inactive); in the test on DMS-114, 26.8 µM (inactive); in the test on RXF 631, 55.6 µM (inactive); in the test with XF498 it was 0.56 µM (active); in the test with SNB-78 it was > 100 µM (inactive); with DMS-273, 51.4 µM (inactive). Also, the GI50 with DLD-1 was 37.2 µM (inactive); in the test with M19-MEL it was 33.9 µM (inactive).
On to `CCOc1ccc(/N=N/c2ccc3oc(=O)c(/C(C)=N/NC(=O)CC(=O)Nc4cccc(OC)c4)cc3c2)cc1`, for which the GI50 in the test on LXFL 529 was 11 µM (inactive); in the test on DMS-114 it was 14.3 µM (inactive); in the test with XF498, 17.5 µM (inactive); with SNB-78, 23.6 µM (inactive); in the test on DMS-273 it was 24.8 µM (inactive); in the test on DLD-1, 13.8 µM (inactive). For the same compound, the GI50 with M19-MEL is 23.8 µM (inactive); in the test on HOP-18 it was 17.1 µM (inactive).
`CN(C)/N=N/c1ccc(S(N)(=O)=O)cc1`: the GI50 in the test with DMS-114, in the test with XF498, with DMS-273, with DLD-1, in the test on M19-MEL and in the test on HOP-18 was > 100 µM (inactive) throughout.
On to `Cc1cccc(N2C(=O)C(=O)C(c3nc4ccccc4s3)/C(=N/NC(=S)NN)C2=O)c1C` (stereo unspecified), for which the GI50 with LXFL 529, in the test on DMS-114, in the test on RXF 631, with XF498, with SNB-78 and with DMS-273 was > 100 µM (inactive) each time. Besides, the GI50 in the test with M19-MEL was > 100 µM (inactive).
Take `COc1c(C(=O)c2ccc([N+](=O)[O-])cc2)cc(C(C)(C)C)cc1C(C)(C)C`: the GI50 in the test with LXFL 529 is 31.6 µM (inactive); in the test on DMS-114 it was 22.1 µM (inactive); in the test with XF498 it was 22.2 µM (inactive); with SNB-78, 46.6 µM (inactive); in the test on DMS-273, 30.2 µM (inactive); in the test with DLD-1, 54 µM (inactive). Further, the GI50 is 30.1 µM (inactive) with M19-MEL and > 100 µM (inactive) in the test on HOP-18.
Take `COc1ccc(C[C@@H]2Cc3cc(OC)c(OC)cc3CN2C)cc1`: the GI50 was > 100 µM (inactive) in the test on LXFL 529, 53.5 µM (inactive) in the test with XF498, > 100 µM (inactive) with SNB-78 and > 100 µM (inactive) in the test on DLD-1.
In the case of `CCOC(=O)/C(C#N)=C\C=C1/C=CN=C2NCCN21`, the GI50 in the test with LXFL 529, with DMS-114, with XF498, with SNB-78, in the test on DMS-273 and in the test on DLD-1 was > 100 µM (inactive) each time. Also, the GI50 with M19-MEL and in the test with HOP-18 was > 100 µM (inactive) each time.
Turning to `N#Cc1ccccc1NC(=O)C(=O)C(C(=O)c1ccncc1)C1OC(=O)c2ccccc21` (stereo unspecified), the GI50 in the test with LXFL 529, in the test on DMS-114, in the test on RXF 631, with XF498, with SNB-78 and with DLD-1 was > 100 µM (inactive) each time. Also, the GI50 with M19-MEL and in the test with HOP-18 was > 100 µM (inactive) in each case.
In the case of `COc1cc2ccn3c4cc(OC)c(OC)cc4cc3c2cc1OC`, the GI50 is 78.7 µM (inactive) with LXFL 529; 50.6 µM (inactive) in the test on DMS-114; 7.16 µM (inactive) in the test on XF498; > 100 µM (inactive) with SNB-78; > 100 µM (inactive) in the test on DLD-1; > 100 µM (inactive) in the test on M19-MEL.
For the compound `O=[N+]([O-])c1cccc(C2ON2C2CCCCC2)c1` (stereo unspecified), the GI50 with LXFL 529 was 20.7 µM (inactive); in the test on DMS-114 it was 19.1 µM (inactive); in the test on SNB-78, 27.4 µM (inactive); in the test with DMS-273, 18.4 µM (inactive); in the test on DLD-1 it was 12 µM (inactive); in the test on M19-MEL, 19.6 µM (inactive). Further, the GI50 with HOP-18 is 30.8 µM (inactive).
As for `CCCCC1(C)C=C/C(=C2/C(=O)O/C(=C\C(=O)O)C2=O)O1` (stereo unspecified), the GI50 in the test with LXFL 529, in the test on RXF 631, in the test on XF498, with SNB-78, in the test on DMS-273 and in the test with M19-MEL was > 100 µM (inactive) in each case. Moreover, in the test on HOP-18, the GI50 was > 100 µM (inactive).
As for `CCOP(=O)(Cc1ccc(CP(=O)(OCC)OCC)n1C)OCC`, the GI50 in the test on LXFL 529, in the test on DMS-114, in the test with RXF 631, in the test on DMS-273, with DLD-1 and with M19-MEL was > 100 µM (inactive) throughout. In addition, in the test on HOP-18, the GI50 was 75 µM (inactive).
Turning to `COC1=CC(C2c3cc4c(cc3[C@@H](Nc3ccc(F)cc3)C3COC(=O)[C@H]23)OCO4)=CC(=O)C1=O` (stereo partly specified), the GI50 in the test on LXFL 529 is 11.6 µM (inactive); with XF498 it was 5.98 µM (inactive); in the test on SNB-78, > 51.9 µM (inactive); with DMS-273, 2.93 µM (inactive); in the test on DLD-1, 26.2 µM (inactive); with M19-MEL, 15.4 µM (inactive).
Consider `Cc1ccc(C2=CC(=O)c3ccccc3C2=O)n1-c1ccccc1`, for which the GI50 is 72.4 µM (inactive) in the test with LXFL 529; 24.6 µM (inactive) in the test with DMS-114; 48.1 µM (inactive) in the test on XF498; > 100 µM (inactive) in the test on SNB-78; > 100 µM (inactive) in the test on DMS-273; > 100 µM (inactive) in the test with DLD-1. Further, the GI50 with M19-MEL and in the test with HOP-18 was > 100 µM (inactive) in each case.
In the case of `CN(C)c1ccc(-c2cc(O)c3cc4c(cc3n2)OCO4)cc1`, the GI50 in the test with LXFL 529, in the test on DMS-114, with RXF 631, in the test on XF498, in the test with DMS-273 and in the test with DLD-1 was > 100 µM (inactive) in each case. Also, in the test on M19-MEL, the GI50 is > 100 µM (inactive).
As for `CC(C)(C)[Si](C)(C)O/N=C\c1ccc(O[Si](C)(C)C(C)(C)C)cc1`, the GI50 is 84.9 µM (inactive) with LXFL 529; 25.9 µM (inactive) with DMS-114; 24 µM (inactive) in the test on RXF 631; 31.8 µM (inactive) in the test with XF498; > 100 µM (inactive) in the test with SNB-78; > 100 µM (inactive) in the test with DMS-273. Also, the GI50 in the test on DLD-1 was > 100 µM (inactive); in the test on M19-MEL it was 41.3 µM (inactive); in the test on HOP-18, > 100 µM (inactive).
For `Cc1cc2c(cc1C)NC(=O)C(NC(=O)/C=C/c1ccccc1)C=N2` (stereo unspecified), the GI50 in the test with LXFL 529 is 27.9 µM (inactive); in the test on DMS-114, 12.3 µM (inactive); in the test with XF498 it was 28 µM (inactive); in the test with SNB-78, 66.7 µM (inactive); in the test on DMS-273 it was 29 µM (inactive); in the test on DLD-1, 28.2 µM (inactive). In addition, the GI50 in the test with M19-MEL was 33.3 µM (inactive); with HOP-18, 37.5 µM (inactive).
Turning to `O=S(=O)(OI(OI(OS(=O)(=O)C(F)(F)F)c1ccccc1)c1ccccc1)C(F)(F)F`, the GI50 is 26.1 µM (inactive) with LXFL 529; 5.18 µM (inactive) with DMS-114; 50.6 µM (inactive) in the test on SNB-78; 23.7 µM (inactive) with DMS-273; 58.9 µM (inactive) in the test with DLD-1; 40.7 µM (inactive) with M19-MEL.
In the case of `O=c1c2cc(Br)ccc2nc(-c2ccccc2Cl)n1NCC1(O)OCC(O)C(O)C1O` (stereo unspecified), the GI50 is 82.8 µM (inactive) with LXFL 529; 75.9 µM (inactive) in the test with DMS-114; > 100 µM (inactive) in the test with SNB-78; > 100 µM (inactive) with DMS-273; > 100 µM (inactive) with M19-MEL.
